“Also recorded” adds a separate entry of the source.
Key:
murine PD-1/PD-L1 = molecular target: T1, murine PD-1/PD-L1 (Mus musculus, UniProt Q9EP73); assay: Cell-based blocking assay, murine PD-1/PD-L1; settings: CHO-K1-mPD-1 cells, PD-L1-Fc, flow cytometry; read-out: IC50 for blocking murine PD-1/PD-L1 interaction
T1 construct: purchased Sino Biological 50,010-M02H; host or cells: CHO-K1-mPD-1 cells carry the partner (lentiviral transfection)
Method: The CHO-K1 cell line with stable expression of CD47 and PD-1 was constructed previously by our group. SMC18 was serially diluted using PBS 7.2 (containing 1% DMSO) and incubated with 100 ng of SIRPα-Fc protein (human: SIA-H5251, mouse: SIA-M5258, ACRO Biosystems) and 50 ng of PD-L1-Fc protein (human: 10,084-H02H, mouse: 50,010-M02H, Sino Biological) on ice for 30 min. The mixture was then added to the corresponding CHO-K1-CD47 or CHO-K1-PD-1 cells and further incubated on ice for 30 min. Afterward, PE-conjugated anti-human IgG (Fc) antibody (A18272, eBioscience) was added. The mean fluorescence intensity (MFI) of the cells was detected using flow cytometry (BD FACSCalibur) and the blocking efficiency was calculated.

MC38 tumor-bearing mice [1] = assay: MC38 tumor model, SMC18 combined with radiotherapy; assay type: in vivo, mouse; settings: one 20 Gy dose local IR + SMC18 2 mg/kg i.p. daily for 14 days
Method: For the combined radiotherapy treatment model, mice were randomly grouped into four groups when the tumor volume reached approximately 40 ~ 60 mm^3. Mice were treated with a single dose of 20 Gy of local tumor irradiation (Precision X-Ray, XRad320) and daily intraperitoneal injections of SMC18 (2 mg/kg) or equivalent amount of saline for 14 days. Tumor volume was measured every other day using the formula V = 1/2 × a × b × c, where a, b, and c are the tumor's length, width, and height, respectively.

hLAG-3/hFGL-1 = hLAG-3/hFGL-1 (Homo sapiens, UniProt P18627+Q08830); assay: Blockade of other immune checkpoint pathways, LAG-3/FGL-1; assay type: cell-based; settings: Fig. S2
Chain of hLAG-3/hFGL-1 (P18627 23-525): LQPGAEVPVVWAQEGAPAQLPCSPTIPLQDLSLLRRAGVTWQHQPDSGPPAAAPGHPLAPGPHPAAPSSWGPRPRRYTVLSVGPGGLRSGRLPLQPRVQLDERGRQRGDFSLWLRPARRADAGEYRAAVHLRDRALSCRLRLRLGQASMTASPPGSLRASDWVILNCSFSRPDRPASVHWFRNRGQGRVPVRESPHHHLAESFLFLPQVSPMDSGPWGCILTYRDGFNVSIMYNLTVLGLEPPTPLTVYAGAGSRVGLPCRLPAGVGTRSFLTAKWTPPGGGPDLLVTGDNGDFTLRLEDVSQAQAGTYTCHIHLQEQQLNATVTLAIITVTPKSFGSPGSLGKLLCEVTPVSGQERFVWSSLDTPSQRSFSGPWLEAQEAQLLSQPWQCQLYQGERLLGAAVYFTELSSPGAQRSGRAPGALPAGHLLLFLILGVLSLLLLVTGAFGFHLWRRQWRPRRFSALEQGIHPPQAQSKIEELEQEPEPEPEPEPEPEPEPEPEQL
Chain of hLAG-3/hFGL-1 (Q08830 23-312): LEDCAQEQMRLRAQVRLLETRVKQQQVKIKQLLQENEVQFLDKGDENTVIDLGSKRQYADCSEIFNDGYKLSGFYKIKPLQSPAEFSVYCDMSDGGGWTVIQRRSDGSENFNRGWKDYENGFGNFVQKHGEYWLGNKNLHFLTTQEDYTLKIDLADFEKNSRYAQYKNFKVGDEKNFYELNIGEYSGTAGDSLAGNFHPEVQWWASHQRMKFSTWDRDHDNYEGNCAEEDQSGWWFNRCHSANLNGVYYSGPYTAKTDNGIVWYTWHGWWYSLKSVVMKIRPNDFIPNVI

MC38 tumor-bearing mice [2] = assay: Ex vivo flow cytometry of immune cells from MC38 tumor-bearing mice; assay type: in vivo, mouse; settings: SMC18 treatment vs NS
Method: At the end of treatment, the tumor-bearing mice were euthanized, and the tumor tissues were removed, minced and enzymatically digested with DNAase I (DN25, Sigma) and collagenase IV (17,104–019, Invitrogen) at 37 °C for 40 min. The digested tumor suspensions were filtered by nylon filter. Immune cell infiltration in the tumor tissue was analyzed by flow cytometry. For the detection of CD8^+ T cells at the tumor site, single-cell suspensions were stained with anti-mouse CD45-FITC (30-F11, eBioscience), anti-mouse CD3-PerCP-eFluor710 (17A2, eBioscience), anti-mouse CD8α-PE (53–6.7, eBioscience) or isotype control. To detect macrophage infiltration at tumor sites, single cell suspensions were stained with anti-mouse CD45-FITC (30-F11, eBioscience), anti-mouse CD11b-eFluor450 (M1/70, eBioscience), anti-mouse F4/80-PerCP-Cyanine5.5 (BM8, eBioscience), anti-mouse CD11c-APC (M418, eBioscience), anti-mouse CD206-PE (MR6F3, eBioscience) or isotype control.
To assess cytokine secretion from tumor sites and immune organs, spleens, draining lymph nodes and tumors from mice were dissected and ground into single cell suspensions, followed by filtration and incubation with […] transport inhibitors, PMA (20 ng/mL, 16561–29-8, Sigma) and ionomycin (1 µM, I0634, Sigma) for 4 h in a 37 °C incubator. The single cell suspensions of draining lymph nodes and spleens were stained with anti-mouse CD3-PerCP-eFluor710 (17A2, eBioscience), anti-mouse CD8α-PE (53–6.7, eBioscience), anti-mouse IFN-γ-APC (XMG1.2, eBioscience) or isotype control. Tumor cells were stained with anti-mouse CD45-FITC (30-F11, eBioscience), anti-mouse CD3-PerCP-eFluor710 (17A2, eBioscience), anti-mouse CD8α-PE (53–6.7, eBioscience), anti-mouse IFN-γ-APC (XMG1.2, eBioscience) or isotype control. Finally, the samples were detected by flow cytometry.

SIRPα = assay: Tyrosine phosphorylation assay of SIRPα, BMDM/MC38 co-culture; assay type: cell-based, mouse; settings: 50 μM, BMDMs co-cultured with MC38 cells, 30 min, Western blotting
Method: Murine bone marrow-derived macrophages were subjected to induction using murine GM-CSF for 7 days. Subsequently, the induced macrophages (2 × 10^6 cells/well) were co-cultured with MC38 cells (1 × 10^7 cells/well). The co-cultures were treated with PBS (negative control), SMC18 (50 μM), or anti-mouse CD47 (clone miap301, 20 μg/mL, positive control) and incubated at 37℃ for 30 min. Following this, cells were washed and lysed. Finally, cell lysates were collected for immunoprecipitation and Western blotting.
In brief, the protein samples were separated by SDS-PAGE using a 4% stacking gel and an 8 ~ 10% main gel and transferred to a polyvinylidene difluoride (PVDF) membrane. The membrane was blocked with 5% milk at room temperature for 1–2 h and then incubated with anti-SIRPα (dilution 1:1000, AB8120, Abcam), anti-PD-1 (dilution 1:200, ab52587, Abcam) or anti-Phosphotyrosine (dilution 1:1000, 05–321, Millipore) dissolved in primary antibody dilution buffer overnight at 4 °C. Then the membrane was washed and incubated with appropriate HRP-coupled goat anti-rabbit IgG (D110058, Sangon Biotech) and HRP-coupled goat anti-mouse IgG (D110087, Sangon Biotech) for 1–2 h at room temperature. Finally, the membranes were exposed using an enhanced chemiluminescence (ECL) detection kit (P1030, Applygen). Results were analyzed by ImageJ software (NIH, Bethesda, MD, United States).

T1 sequence (Q9EP73 19-238 limits assumed): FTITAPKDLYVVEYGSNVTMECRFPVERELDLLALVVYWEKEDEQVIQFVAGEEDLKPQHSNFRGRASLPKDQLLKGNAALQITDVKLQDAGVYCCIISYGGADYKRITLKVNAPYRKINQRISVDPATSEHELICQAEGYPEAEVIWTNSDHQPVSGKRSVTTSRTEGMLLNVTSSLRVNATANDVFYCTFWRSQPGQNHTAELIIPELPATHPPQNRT

Structure (SMILES): Cc1cc(C)cc(NS(=O)(=O)c2ccc3[nH]cc(C(=O)NCCc4ccccc4)c(=O)c3c2)c1 [SMC18]
- IC50 (murine PD-1/PD-L1): 71.3 ± 20 µM
- body weight of the mice, combination with radiotherapy (MC38 tumor-bearing mice [1]): without affecting
- tumor growth, combination with radiotherapy (MC38 tumor-bearing mice [1]): significantly inhibited
- inhibitory effect on hLAG-3/hFGL-1 pathway (hLAG-3/hFGL-1): no blocking effect; also recorded: did not impede
- amount of CD8+ T cell secreting IFN-γ in the tumor tissue (MC38 tumor-bearing mice [2]; MC38 tumor): significantly increased
- infiltration of CD8+ T cells in the tumor tissue (MC38 tumor-bearing mice [2]; MC38 tumor): significantly increased
- amount of CD8+ T secreting IFN-γ in the draining lymph nodes (MC38 tumor-bearing mice [2]): increased
- amount of CD8+ T secreting IFN-γ in the spleen (MC38 tumor-bearing mice [2]): increased
- proportion of M1-type macrophages in tumor (MC38 tumor-bearing mice [2]): increased
- tyrosine phosphorylation levels of SIRPα (SIRPα): significantly suppressed
